# Data: patent US20220259167A1 (UNIVERSITY HEALTH NETWORK, priority 2019, published 2022)
# Values joined by “and” are separate entries in the source; they are usually repeats but may differ in a detail not shown here. Identical values can stand only once. Like-named read-outs stand apart in the source and are kept apart here.
# Key:
# SIM-A9 cells = assay: Anti-inflammation assay: TNF-α production from LPS stimulated SIM-A9 cells (ELISA); type: cell-based; settings: compound 2.7 μM; LPS stimulated SIM-A9 cells; read-out: TNF-α Inhibition
# Aβ 1-40 = Aβ 1-40 (Homo sapiens, UniProt P05067); assay: Aβ ThT aggregation (fibrillization) assay; type: biochemical; settings: compound at 100 μM
# Chain of Aβ 1-40 (P05067 672-711): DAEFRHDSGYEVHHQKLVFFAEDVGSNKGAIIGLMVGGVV
# [1] = target: biotinylated amyloid-beta(1-42) (bioAbeta42) (Homo sapiens, UniProt P05067); type: biochemical
# Chain of biotinylated amyloid-beta(1-42) (bioAbeta42) (P05067 672-713): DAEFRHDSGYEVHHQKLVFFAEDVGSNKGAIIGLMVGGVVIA
# [2] = Example 5, versus DMSO control, read-out: Inhibition of Aβ fibrillization at concentration 100 μM, Inhibition %
# [3] = Example 5, ND = inhibition activity not detected over 200 μM, read-out: Inhibition of Aβ oligomerization, μM IC50
# [4] = Example 2, read-out: Anti-Aβ oligomerization IC50
# [5] = Example 3, read-out: % inhibition of Aβ fibrillization (at 100 μ M)
Compound,"IC50 [1, 3] [µM]",inhibition at 2.7 µM (SIM-A9 cells) [%],further results
COc1ccc(C(=O)O)c(NCc2ccco2)c1 [Compound 5-LV-54A],,16,
"COc1ccc(C(=O)O)c(NCc2ccccc2)c1 [Compound 5-LV-54B, 2-(Benzylamino)-4-methoxybenzoic Acid]",,30,
COc1ccc(C(=O)O)c(NCc2ccoc2)c1 [Compound 5-LV-56A],,32,
"O=C(O)c1ccc(Cl)cc1NCc1ccccc1 [LD3-305, 2-(Benzylamino)-4-chlorobenzoic Acid]",,30,
"O=C(O)c1ccc(Cl)cc1NCCc1ccccc1 [LD3-306, 4-Chloro-2-(phenethylamino)benzoic Acid]",,21,
"O=C(O)c1ccc(Cl)cc1NCc1cccs1 [LD3-309, 4-Chloro-2-((thiophen-2-ylmethyl)amino)benzoic Acid]",,18,
"O=C(O)c1ccc(Cl)cc1NCc1ccoc1 [LD3-310, 4-Chloro-2-((furan-3-ylmethyl)amino)benzoic Acid]",,24,
"O=C(O)c1cc(S(=O)(=O)Nc2ccccc2)c(Cl)cc1NCc1ccco1 [SI-W080, 4-Chloro-2-((furan-2-ylmethyl)amino)-5-(N-phenylsulfamoyl) benzoic acid]",168 ± 29,,inhibition at 100 µM (Aβ 1-40; [2]): 17.4%
"CNC(=O)c1cc(C(=O)OC)c(NCc2ccco2)cc1Cl [SIV-W155, Methyl 4-chloro-2-((furan-2-ylmethyl)amino)-5-(methylcarbamoyl)benzoate]",,20,
"COC(=O)c1cc(C(=O)N2CCCCC2)c(Cl)cc1NCc1ccco1 [SIV-W160, Methyl 4-chloro-2-((furan-2-ylmethyl)amino)-5-(piperidine-1-carbonyl)benzoate]",,25,
"NC(=O)c1cc(C(=O)O)c(NCc2ccco2)cc1Cl [SIV-W164, 5-Carbamoyl-4-chloro-2((furan-2-ylmethyl)amino) Benzoic Acid]",> 200,,
"O=C(O)c1cc(C(=O)N2CCOCC2)c(Cl)cc1NCc1ccco1 [SIV-W166, 4-Chloro-2-((furan-2-ylmethyl)amino)-5-(morpholine-4-carbonyl)benzoic acid]",> 200,25,
"O=C(O)c1cc(C(=O)N2CCCCC2)c(Cl)cc1NCc1ccco1 [SIV-W167, 4-Chloro-2-((furan-2-ylmethyl)amino)-5-(piperidine-1-carbonyl)benzoic Acid]",> 200,,
"CNC(=O)c1cc(C(=O)O)c(NCc2ccco2)cc1Cl [SIV-W168, 4-Chloro-2-((furan-2-ylmethyl)amino)-5-(methylcarbamoyl)benzoic Acid]",> 200,27,
"CCNC(=O)c1cc(C(=O)OC)c(NCc2ccco2)cc1Cl [SIV-W172, Methyl 4-chloro-5-(ethylcarbamoyl)-2-((furan-2-ylmethyl)amino)benzoate]",,18,
"CN(C)C(=O)c1cc(C(=O)O)c(NCc2ccco2)cc1Cl [SIV-W173, 4-Chloro-5-(dimethylcarbamoyl)-2((furan-2-ylmethyl)amino)benzoic Acid]",> 200,25,
"CCNC(=O)c1cc(C(=O)O)c(NCc2ccco2)cc1Cl [SIV-W174, 4-Chloro-5-(ethylcarbamoyl)-2((furan-2-ylmethyl)amino)benzoic Acid]",> 200,21,
"COC(=O)c1cc(C(=O)Nc2ccccc2)c(Cl)cc1NCc1ccco1 [SIV-W178, Methyl 4-chloro-2-((furan-2-ylmethyl)amino)-5-(phenylcarbamoyl)benzoate]",,12,
"O=C(Nc1ccccc1)c1cc(C(=O)O)c(NCc2ccco2)cc1Cl [SIV-W179, 4-Chloro-2((furan-2-ylmethyl)amino)-5-(phenylcarbamoyl)benzoic Acid]",> 200,22,
"CNS(=O)(=O)c1cc(C(=O)N(C)C)c(NCc2ccco2)cc1Cl [WW103, 4-Chloro-2-((furan-2-ylmethyl)amino)-N, N-dimethyl-5-(N-methylsulfamoyl) Benzamide]",,,"inhibition at 100 µM (Aβ 1-40; [5]): 25.2%; inhibition at 100 µM (Aβ 1-40; [2]): 25.2%; IC50 ([1]; Example 5, ND = inhibition activity not detected over 200 μM, listed as SII-W103, read-out: Inhibition of Aβ oligomerization, μM IC50): 6.5 µM and 6.56 µM"
Cc1ccc(CNc2cc(F)ccc2C(O)C(F)(F)F)c(C)c1 (centres unmarked) [WW-024],,11.2,
COc1c(C)ccc(CNc2cc(F)ccc2C(O)C(F)(F)F)c1OC (centres unmarked) [WW-028],,19.9,
COC(=O)c1cc(S(N)(=O)=O)c(Cl)cc1NCc1ccco1 [WW-161],,24,

# Continued, in another order:
"IC50 [1, 3] [µM]",Compound,inhibition at 2.7 µM (SIM-A9 cells) [%],further results
> 200,"O=C(O)c1ccc(Cl)cc1NCc1ccco1 [WW001, 4-Chloro-2-((furan-2-ylmethyl)amino) Benzoic Acid]",,inhibition at 100 µM (Aβ 1-40; [2]): 20.2%
> 200,"O=C(O)c1cc(S(=O)(=O)NC2CC2)c(Cl)cc1NCc1ccco1 [WW030, 4-Chloro-5-(N-cyclopropylsulfamoyl)-2-((furan-2-ylmethyl)amino)benzoic Acid]",,
53 ± 3.37,"CNS(=O)(=O)c1cc(C(=O)O)c(NCc2ccco2)cc1Cl [WW032, 4-chloro-2-((furan-2-ylmethyl)amino)-5-(N-methylsulfamoyl) Benzoic Acid]",,"Inhibition of Aβ fibrillization at concentration 100 μM, Inhibition % (Aβ 1-40; Example 5, versus DMSO control): Pro- fibrilliza- tion; IC50 [1, 4]: 55.1 µM"
> 200,"O=C(O)c1cc(S(=O)(=O)NCc2ccccc2)c(Cl)cc1NCc1ccco1 [WW035, 5-(N-benzylsulfamoyl)-4-chloro-2-((furan-2-ylmethyl)amino)benzoic Acid]",,
68.5 ± 18.7,"O=C(O)c1cc(S(=O)(=O)NCc2ccc(C(O)C(F)(F)F)cc2)c(Cl)cc1NCc1ccco1 (centres unmarked) [WW036, 4-Chloro-2-((furan-2-ylmethyl)amino)-5-(N-(4-(2,2,2-trifluoro-1-hydroxyethyl)benzyl)sulfamoyl)benzoic Acid]",,"Inhibition of Aβ fibrillization at concentration 100 μM, Inhibition % (Aβ 1-40; Example 5, versus DMSO control): Pro- fibrilliza- tion"
41.2 ± 12.8,"O=C(O)c1cc(S(=O)(=O)N2CCOCC2)c(Cl)cc1NCc1ccco1 [WW049, 4-Chloro-2((furan-2-ylmethyl)amino)-5-(morpholinosulfony)benzoic Acid]",,"Inhibition of Aβ fibrillization at concentration 100 μM, Inhibition % (Aβ 1-40; Example 5, versus DMSO control): Pro- fibrilliza- tion; IC50 [1, 4]: 38.5 µM"
21.9 ± 7.36,"CN(Cc1ccccc1)S(=O)(=O)c1cc(C(=O)O)c(NCc2ccco2)cc1Cl [WW052, 5-(N-Benzyl-N-methylsulfamoyl)-4-chloro-2-((furan-2-ylmethyl)amino) benzoic Acid]",24.1,"IC50 [1, 4]: 21.7 µM"
41.1 ± 20.4,"CC(NS(=O)(=O)c1cc(C(=O)O)c(NCc2ccco2)cc1Cl)c1ccccc1 (centres unmarked) [WW053, 4-Chloro-2-((furan-2-ylmethyl)amino)-5-(N-(1-phenylethyl)sulfamoyl) benzoic Acid]",,"IC50 [1, 4]: 38.5 µM"
> 200,"O=C(O)c1cc(S(=O)(=O)NCCc2ccccc2)c(Cl)cc1NCc1ccco1 [WW056, 4-Chloro-2-((furan-2-ylmethyl)amino)-5-(N-phenethylsulfamoyl) Benzoic Acid]",13,
137 ± 11.9,"CCNS(=O)(=O)c1cc(C(=O)O)c(NCc2ccco2)cc1Cl [WW057, 4-Chloro-5-(N-ethylsulfamoyl)-2-((furan-2-ylmethyl)amino) Benzoic Acid]",,
113 ± 22.8,"CN(C)S(=O)(=O)c1cc(C(=O)O)c(NCc2ccco2)cc1Cl [WW062, 4-Chloro-5-(N, N-dimethylsulfamoyl)-2-((furan-2-ylmethyl)amino) Benzoic Acid]",,"Inhibition of Aβ fibrillization at concentration 100 μM, Inhibition % (Aβ 1-40; Example 5, versus DMSO control): Pro- fibrilliza- tion"
> 200,"COc1ccc(CNS(=O)(=O)c2cc(C(=O)O)c(NCc3ccco3)cc2Cl)cc1 [WW063, 4-Chloro-2-((furan-2-ylmethyl)amino)-5-(N-(4-methoxybenzyl)sulfamoyl) Benzoic Acid]",,
47.8 ± 14.3,"CCCCCCNS(=O)(=O)c1cc(C(=O)O)c(NCc2ccco2)cc1Cl [WW064, 4-Chloro-2-((furan-2-ylmethyl)amino)-5-(N-hexylsulfamoyl) Benzoic Acid]",,"inhibition at 100 µM (Aβ 1-40; [5]): 39.2%; inhibition at 100 µM (Aβ 1-40; [2]): 39.2%; IC50 [1, 4]: 46.1 µM"
> 200,"Cc1ccc(CNS(=O)(=O)c2cc(C(=O)O)c(NCc3ccco3)cc2Cl)cc1 [WW065, 4-Chloro-2-((furan-2-ylmethyl)amino)-5-(N-(4-methylbenzyl)sulfamoyl) Benzoic Acid]",20,
130 ± 25.8,"O=C(O)c1ccc(F)cc1NCc1ccco1 [WW071, 4-Fluoro-2-((furan-2-ylmethyl)amino)benzoic Acid]",,
154 ± 33.8,"O=C(O)c1ccc(Br)cc1NCc1ccco1 [WW073, 4-Bromo-2-((furan-2-ylmethyl)amino) Benzoic Acid]",27,
116 ± 13.8,"O=C(O)c1cc(S(=O)(=O)NC2CCCCC2)c(Cl)cc1NCc1ccco1 [WW082, 4-Chloro-5-(N-cyclohexylsulfamoyl)-2-((furan-2-ylmethyl)amino) Benzoic Acid]",11,
117 ± 3.95,"CNS(=O)(=O)c1cc(CO)c(NCc2ccco2)cc1Cl [WW109, 2-Chloro-4-((furan-2-ylmethyl)amino)-5-(hydroxymethyl)-N-methylbenzenesulfonamide]",21,
70.5 ± 15.7,CNS(=O)(=O)c1cc(-c2nnn[nH]2)c(NCc2ccco2)cc1Cl [WW121],2,
> 200,"CNS(=O)(=O)c1cc(-c2noc(=O)[nH]2)c(NCc2ccco2)cc1Cl [WW187, 2-Chloro-4-((furan-2-ylmethyl)amino)-N-methyl-5-(5-oxo-2,5-dihydro-1,2,4-oxadiazol-3-yl)benzenesulfonamide]",20,
